Test [1] deals with GAA·TTC duplex repeats in the frataxin gene; radiolabeled PCR product containing a (GAA)6 sequence. The test can be described thus: Quantitative DNase I footprinting on (GAA)6 DNA. It counts as binding. The source says:
Targeting GAA Repeat DNA with Polyamides. β-Alanine linked polyamides FA1-FA6 were synthesized (see Example 6) with sequence, theoretical DNA binding site, theoretical DNA binding site SEQ ID NO: ______) and binding affinity as shown in Table 1. […] Those of skill in the art will recognize that this value may be an underestimation of the affinity of this molecule for GAA repeat DNA since the KD measurements are limited by a minimum DNA concentration of ˜2 pM in the binding reaction. Radiolabeling of nucleic acid incorporated γ^32P ATP and polynucleotide kinase used standard procedures.
Polyamlde Synthesis and Characterization. Polyamides were synthesized by solid phase methods (Urbach & Dervan, Id.; Baird & Dervan, 1996, J. Am. Chem. Soc. 118:6141-6146) and their identity and purity verified by MALDI-TOF MS and analytical HPLC, using methods well known in the art. Fluorescent conjugates were prepared by coupling BODIPY (Molecular Probes) to the carboxyl-terminus (Best et al., 2003, Proc. Natl. Acad. Sci. U.S.A. 100:12063-12068). Binding affinities for match and mismatch sites were determined by quantitative DNase I footprinting (Trauger & Dervan, Id). A plasmid harboring six GAA repeats was constructed by cloning the oligonucleotide
in the pCR2.1 TOPO vector (Invitrogen, Calif.), and a 117 bp singly end-labeled PCR product was generated from this plasmid with the following oligonucleotides:
where the second oligonucleotide was labeled with γ-^32P ATP and polynucleotide kinase, using standard procedures, to generate a PCR product labeled on the GAA strand. A 204 bp singly end-labeled PCR product was derived from plasmid pMP142 DNA, containing 33 GAA repeats (Ohshima et al., Id.), with following oligonucleotides: […]

The test system of test [2] is frataxin mRNA in GM15851 normal lymphoid cell line. The test can be described thus: qRT-PCR of frataxin mRNA, normal cell line. It counts as cell-based, human. An excerpt:
GAA Specific Polyamides Up Regulate Frataxin mRNA and Protein. To assess whether polyamides alleviate transcription inhibition caused by expanded GAA repeats in the frataxin gene, quantitative real time/reverse transcriptase PCR (qRT-PCR) was used to monitor frataxin mRNA levels in the GM15850 and GM15851 lymphoid cell lines described above; levels of glyceraldehyde 3-phosphate dehydrogenase (GAPDH) mRNA were used as an internal control for each RNA sample; see Example 8. No differences in GAPDH were found between the two cell lines. […] No changes in frataxin mRNA levels were observed on shorter incubation times.
Cell Culture. […] Cell growth and morphology were monitored by phase contrast microscopy and viability by trypan blue exclusion and an ATP assay (ApoSENSOR™, BioVision). […]
Real-Time Quantitative RT-PCR. Real-time quantitative RT-PCR (qRT-PCR) analysis was performed essentially as previously described (Chuma, et al., 2003, Hepatology 37:198-207), using the following primers for the frataxin gene: […]
RNA was standardized by quantification of GAPDH mRNA (Pattyn et al., 2003, Nucleic Acids Res. 31:122-123), and all values are expressed relative to GAPDH. qRT-PCR was performed using iScript One-Step RT-PCR kit with SYBR green (Biorad). Statistical analysis was performed on three independent quantitative RT-PCR experiments for each RNA sample.
For orientation: Quantitative PCR measures a nucleic acid by following its amplification.

The test system of test [3] is GM15850 FRDA lymphoid cells. Briefly: DNA microarray of global gene expression, FRDA cells. It counts as cell-based, human. The note with it: for number of genes with affected mRNA levels: P≦0.005; for gene expression profile approaching that of untreated GM15851 cells, in words: FA1 at 1 μM, FA2 at 2 μM. On the procedure: Effects of Polyamides on Global Gene Expression. DNA microarray analyses (see Example 10) were performed with RNA isolated from GM15850 FRDA and GM15851 normal lymphoid cells that were either untreated or treated with polyamides FA1 (at 1 and 2 μM) or FA2 (at 2 μM) for 7 days on Affymetrix Human Genome U133 Plus 2.0 GeneChips®. These chips contain […] oligonucleotides representing all or nearly all of the genes in the human genome). Experiments were conducted according to manufacturer guidelines. […] Although more genes were judged affected by FA1 at 1 μM than at 2 μM, this difference is largely due to genes whose mRNA levels change by less than […] in either direction, and thus are not highly significant. At 2 μM FA1, 15 genes were increased in expression by greater than 50% and one gene was decreased by 45%. […] For GM15851 cells, two genes were up regulated by FA1, and no genes were down regulated. (Note that the probability that the genes affected in GM15851 cells would be judged significant by chance at P≦0.005 is 0.8-1.0, based on analysis with BRB ArrayTools). […] Strikingly, binding sites for FA1 (5′-AAGAAGAAG-3′, SEQ ID NO: ______) are present in 18/20 genes whose mRNA levels are increased by 1.2-fold or greater in GM15850 cells, although this sequence would be expected to appear at random only once per 262,000 bp in genomic DNA.
DNA Microarrays. FRDA and control lymphoid cells (i.e., lines GM15850 and GM15851, respectively) were incubated with polyamides FA1 (at 1 or 2 μM) or FA2 (at 2 μM), or in the absence of polyamide, in triplicate for seven days prior to RNA purification and microarray analysis. Affymetrix U133A Plus 2.0 GeneChips® were hybridized in groups of eight for each of the three replicates. Raw GeneChip® data were normalized with RMAExpress (Bolstad et al., 2003, Bioinformatics 19:185-193) and the normalized data was filtered to remove probesets called absent on 24 of 24 chips from class comparisons. The Affymetrix probeset-level data was imported to BRB Arraytools (v3.3.0 Beta 3a) selecting the U133 chips used in the experiment and leaving all filters off. For class comparisons between groups of arrays, unpaired samples were used and the random variance model was selected, with the univariate significance threshold set to 0.005. The restrictions for the univariate test were maintained as the default values of 10 for the maximum number of false discovered genes, 0.1 for the maximum proportion of false discoveries, and a 90% confidence level. Because of poor data correlation in one set of replicates, class comparisons were performed using all chips for the control group versus two of the three replicates for the treatment group (i.e., five groups are the minimum number required for class comparisons).

The mark [4] stands for this setting: (GAA)6 DNA, values in text, read-out: apparent dissociation constant (KD).
Setting [5] is: quantitative DNase I footprinting, mean and standard deviation, minimum of two determinations, read-out: Binding affinity (KD).

Here are results for 2 compounds from patent US20060270727A1, “Small molecule therapeutics and uses therefor” (priority 2005, published 2006).

Where two headings read alike, the source gives them in different places. Where only a bound is given, the exact number is not on record here.

With `CN(C)CCCNC(=O)CCNC(=O)c1nc(NC(=O)CCNC(=O)c2cc(NC(=O)c3nc(NC(=O)CCNC(=O)c4cc(NC(=O)c5nccn5C)cn4C)cn3C)cn2C)cn1C` [FA1, ImPyβImPyβImβDp], the Kd in test [1] (setting [4]) amounted to 0.1 nM. Moreover, the Kd in test [1] (setting [5]) is 0.11 ± 0.02 nM. The “effect on frataxin mRNA levels, in words” value in test [2] was “did not change frataxin mRNA levels”. Further, the “genes with comparable changes (>50% increase or 45% decrease) in mRNA levels” value in test [3] (1 μM) was “three genes”. The “number of genes with affected mRNA levels” value (shortened to “number of genes”) in test [3] (1 μM, 7 days) is listed as 51 genes. Besides, in test [3] (2 μM), the “frataxin mRNA level as % of that found in GM15851 cells (microarray)” value was determined as 42%, the “genes decreased in expression (by 45%)” value is given as “one gene” and the “genes increased in expression by greater than 50%” value stood at 15 genes. Moreover, in test [3] (2 μM, 7 days), the “increase of frataxin mRNA (microarray)” value is reported as 2.5 fold and the “number of genes” value was found to be 16 genes. For the same compound, in test [3] (2 μM, untreated FRDA cells 0.97), the “slope of gene expression profile correlation vs untreated GM15851 cells” value is listed as 0.69. For the same compound, the “gene expression profile approaching that of untreated GM15851 cells, in words” value in test [3] was “seen to a lesser degree”.

Consider `CN(C)CCCNC(=O)CCNC(=O)c1cc(NC(=O)CCNC(=O)c2nc(NC(=O)c3nc(NC(=O)CCNC(=O)c4cc(NC(=O)c5nccn5C)cn4C)cn3C)cn2C)cn1C` [FA2, ImPyβImImβPyβDp], for which, in test [1] (setting [4]), the Kd is above 100 nM. Further, the “reduction of binding affinity vs match polyamide” value in test [1] (mismatch vs match polyamide (FA2 vs FA1, FA4 vs FA3)) is recorded as “greater than three orders of magnitude”. Further, the Kd in test [1] (setting [5]) was above 100 nM. For the same compound, the “effect on frataxin mRNA levels, in words” value in test [2] is “no change in frataxin mRNA”. Also, in test [3] (2 μM, 7 days), the “transcript levels for frataxin (microarray)” value is reported as “not changed” and the “number of genes” value is reported as “three genes”. Further, the “gene expression profile approaching that of untreated GM15851 cells, in words” value in test [3] is recorded as “not seen”.
